The record followed here is patent US5137887A, “Salts of optically active 4-hydroxy-8(3-lower alkoxy-4-phenylsulfinylphenyl)pyrazolo(1,5-A)-1,3,5- triazines and a process for production thereof” (Otsuka Pharmaceutical Factory, Inc., priority 1989, dated 1992).

The nature of one data set: Solubility test. The format is physicochemical. The settings on record: shaken at 25° C., HPLC. How it is done:
Solubility tests with the above respective samples using water (distilled water for injection) and physiological saline as solvents were performed as follows.
Using an incubator (Taiyo Kagaku Kogyo, M-100), the tube was shaken at 25° C. After 4 hours, the content was filtered through a 0.45 μm filter and the filtrate was diluted 100-fold with mobile phase to prepare a test solution. Separately, 40.0 mg of Sample I (racemic form) was accurately weighed and made up with water to make exactly 200 ml. Then, 1 ml of this solution was accurately taken and diluted with mobile phase to make exactly 20 ml (10 μg/ml) of standard solution. Using the above test solutions and the standard solution, the solubilities of the respective samples were determined.

The subject of data set [1] is xanthine dehydrogenase activity in the liver. As to the kind of experiment: Xanthine dehydrogenase inhibitory activity test (enzyme activity in liver after oral administration). Type of data set: in vivo. The conditions noted are these: male ICR rats, 5 mg/kg orally in 0.5% CMC; for Enzymatic activity in the liver isolated after 4 hr.: liver excised 4 hours after administration; for Enzymatic activity in the liver isolated after 8 hr.: liver excised 8 hours after administration. How it is done:
Xanthine dehydrogenase inhibitory activity test
The test was performed using male ICR […] (aged 6 weeks, b.w. 28.0-40.6 g). The compounds of the invention as obtained in Example 2 were respectively suspended in 0.5% carboxymethylcellulose (CMC) solution and the suspensions were administered orally at the rate of 10 ml/kg (Test Group 1 and Test Group 2). The compound of the invention and its dosage used in each test group are shown below.
After 4 and 8 hours from the administration, animals in each group were sacrified, the liver was excised, and the xanthine dehydrogenase activity in the liver was assayed by the following general procedure.
Thus, a homogenate of the liver was diluted 5-fold with 100 mM Tris-HCl buffer (hereinafter referred to merely as buffer). Then, 50 μl of this dilution, 25 μl of a buffer dilution of NAD^+ (20 mM) and 25 μl of a buffer solution of potassium oxonate were added to 300 μl of the buffer (the concentrations of NAD^+ and potassium oxonate in the total solution were 1 mM each) and the mixture was incubated at 25° C. for 5 minutes. This incubate was centrifuged and the uric acid in the supernatant was estimated by high performance liquid chromatography (HPLC). The value was taken as the pre-treatment baseline.
On the other hand, to a preincubate obtained in the same manner as above was added 100 μl of a buffer solution of xanthine (1 mM) and the mixture was incubated at 25° C. for 5 minutes. The reaction was stopped with 50 μl of 6M perchloric acid and the reaction mixture was centrifuged in the same manner as above. The supernatant was neutralized with an aqueous solution of sodium dihydrogen phosphate and uric acid produced was assayed by HPLC. The value was taken as the post-treatment value.
From the difference between the above post-treatment value and pre-treatment baseline value of uric acid, xanthine dehydrogenase activity was determined.

The mark [2] stands for this setting: water, water (distilled water for injection), read-out: Solubility in water.
Where [3] appears, read: physiological saline, read-out: Solubility in physiological saline.

Like-named read-outs stand apart in the source and are kept apart here.

On to `COc1cc(-c2cnn3c([O-])ncnc23)ccc1[S+]([O-])c1ccccc1.O.[Na+]` (racemic) [Sample I, Sodium (±)-8-(3-methoxy-4-phenylsulfinylphenyl)pyrazolo[1,5-a]-1,3,5-triazine-4-olate monohydrate, reference compound], for which the “Solubility in physiological saline” value in the data set “Solubility test” (physiological saline, 4 hours, listed as sodium salt of the racemic compound, monohydrate, 240 min) is given as “about 0.08 w/w %”; in “Solubility test” (physiological saline, 4 hours, monohydrate, 240 min), 0.0083 w/w %. Moreover, the Solubility in water result in “Solubility test” (water (distilled water for injection), 4 hours, listed as sodium salt of the above racemic compound, monohydrate, 240 min) is reported as “about 0.2 w/w %”. Besides, the solubility (as a rule, the concentration that dissolves in the medium under given conditions) at 4 h in “Solubility test” (setting [2]) turned out to be 2.21 mg/mL.
Regarding `COc1cc(-c2cnn3c([O-])ncnc23)ccc1[S+]([O-])c1ccccc1.O.O.[Na+]` (single isomer, unassigned) [Sample II, Sodium (-)-8-(3-methoxy-4-phenylsulfinylphenyl)pyrazolo[1,5-a]-1,3,5-triazine-4-olate dihydrate], the solubility at 4 h in the data set “Solubility test” (setting [3]) and in the data set “Solubility test” (setting [2]) was no less than 500 mg/mL each time. Moreover, in data set [1] (control 152 ± 21, listed as Test group 1, dihydrate), the “Enzymatic activity in the liver isolated after 4 hr.” value worked out at 7 ± 4 mU/g. In data set [1] (control 137 ± 31, listed as Test group 1, dihydrate), the “Enzymatic activity in the liver isolated after 8 hr.” value is listed as 17 ± 7 mU/g.
For the compound `COc1cc(-c2cnn3c([O-])ncnc23)ccc1[S+]([O-])c1ccccc1.O.O.[Na+]` (single isomer, unassigned) [Sample III, Sodium (+)-8-(3-methoxy-4-phenylsulfinylphenyl)pyrazolo[1,5-a]-1,3,5-triazine-4-olate dihydrate], the “Enzymatic activity in the liver isolated after 4 hr.” value in data set [1] (control 152 ± 21, listed as Test group 2, dihydrate) was determined as 33 ± 16 mU/g. The “Enzymatic activity in the liver isolated after 8 hr.” value in data set [1] (control 137 ± 31, listed as Test group 2, dihydrate) was determined as 22 ± 10 mU/g.
For the compound `COc1cc(-c2cnn3c(O)ncnc23)ccc1[S+]([O-])c1ccccc1` (single isomer, unassigned) [Sample IV, Calcium bis[(-)-8-(3-methoxy-4-phenylsulfinylphenyl)pyrazolo[1,5-a]-1,3,5-triazine-4-olate] dihydrate], the solubility at 4 h was no less than 500 mg/mL in the data set “Solubility test” (setting [3]) and no less than 500 mg/mL in the data set “Solubility test” (water (distilled water for injection), read-out: Solubility in water).
